Reference: ChEMBL document CHEMBL1149337, “Design and synthesis of potent and selective 1,3,4-trisubstituted-2-oxopiperazine based melanocortin-4 receptor agonists” (Bioorg Med Chem Lett, 2006)

Biological target: T1, Melanocortin receptor 4 (Homo sapiens, UniProt P32245)
Test: Agonist activity at human MC4R
Format: functional

T1 sequence (P32245 whole entry): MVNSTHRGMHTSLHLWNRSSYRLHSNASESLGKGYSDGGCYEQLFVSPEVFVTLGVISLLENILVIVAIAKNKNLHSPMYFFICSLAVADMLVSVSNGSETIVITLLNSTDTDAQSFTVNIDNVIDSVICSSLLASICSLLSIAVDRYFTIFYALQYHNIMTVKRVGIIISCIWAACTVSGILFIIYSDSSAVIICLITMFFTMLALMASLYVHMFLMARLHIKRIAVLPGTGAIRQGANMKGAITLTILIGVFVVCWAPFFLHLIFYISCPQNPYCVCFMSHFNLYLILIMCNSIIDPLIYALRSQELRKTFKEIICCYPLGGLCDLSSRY

Going from `CNC(=O)[C@H](Cc1ccc2ccccc2c1)N1CCN(C(=O)[C@@H](Cc2ccc(F)cc2)NC(C)=O)[C@@H](CCCN=C(N)N)C1=O` to `CNC(=O)[C@H](Cc1ccc2ccccc2c1)N1CCN(C(=O)[C@H](N)Cc2ccc(F)cc2)[C@@H](CCCN=C(N)N)C1=O`, the EC50 rises from 0.0005 µM to 0.0016 µM (3.2-fold).

Going from `CNC(=O)[C@H](Cc1ccc2ccccc2c1)NC(=O)[C@H](CCCN=C(N)N)NC(=O)[C@H](N)Cc1ccc(F)cc1` to `CNC(=O)[C@H](Cc1ccc2ccccc2c1)N1CCN(C(=O)[C@@H](Cc2ccc(F)cc2)NC(=O)[C@H](CCC(N)=O)NC(C)=O)[C@@H](CCCN=C(N)N)C1=O`, the EC50 falls from 0.14 µM to 0.00034 µM (410-fold).

First: CNC(=O)[C@H](Cc1ccc2ccccc2c1)N1CCN(C(=O)[C@H](N)Cc2ccc(F)cc2)[C@@H](CCNC(N)=O)C1=O
Second: CNC(=O)[C@H](Cc1ccc2ccccc2c1)N1CCN(C(=O)[C@@H](Cc2ccc(F)cc2)NC(=O)[C@H](Cc2ccc(O)cc2)NC(C)=O)[C@@H](CCCN=C(N)N)C1=O
The EC50 of the first is 2.1-fold higher: 0.018 µM for the first, 0.0087 µM for the second.

Biological target: T1, Melanocortin receptor 4
Test: Binding affinity to human MC4R

Going from `CNC(=O)[C@H](Cc1ccc2ccccc2c1)N1CCN(C(=O)[C@@H](Cc2ccc(F)cc2)NC(C)=O)[C@@H](CCCN=C(N)N)C1=O` to `CNC(=O)[C@H](Cc1ccc2ccccc2c1)N1CCN(C(=O)[C@H](N)Cc2ccc(F)cc2)[C@@H](CCCN=C(N)N)C1=O`, the Ki rises from 0.0013 µM to 0.007 µM (5.4-fold). The first binds more tightly here.

Compared with `CNC(=O)[C@H](Cc1ccc2ccccc2c1)NC(=O)[C@H](CCCN=C(N)N)NC(=O)[C@H](N)Cc1ccc(F)cc1`, `CNC(=O)[C@H](Cc1ccc2ccccc2c1)N1CCN(C(=O)[C@@H](Cc2ccc(F)cc2)NC(=O)[C@H](CCC(N)=O)NC(C)=O)[C@@H](CCCN=C(N)N)C1=O` is 200-fold lower in Ki: 0.225 µM for the first, 0.0011 µM for the second. The second binds more tightly here.

Going from `CNC(=O)[C@H](Cc1ccc2ccccc2c1)N1CCN(C(=O)[C@H](N)Cc2ccc(F)cc2)[C@@H](CCNC(N)=O)C1=O` to `CNC(=O)[C@H](Cc1ccc2ccccc2c1)N1CCN(C(=O)[C@@H](Cc2ccc(F)cc2)NC(=O)[C@H](Cc2ccc(O)cc2)NC(C)=O)[C@@H](CCCN=C(N)N)C1=O`, the Ki falls from 0.365 µM to 0.0004 µM (910-fold). The second binds more tightly here.

Biological target: T2, Melanocyte-stimulating hormone receptor (Homo sapiens, UniProt Q01726)
Test: Binding affinity to human MC1R

T2 sequence (Q01726 whole entry): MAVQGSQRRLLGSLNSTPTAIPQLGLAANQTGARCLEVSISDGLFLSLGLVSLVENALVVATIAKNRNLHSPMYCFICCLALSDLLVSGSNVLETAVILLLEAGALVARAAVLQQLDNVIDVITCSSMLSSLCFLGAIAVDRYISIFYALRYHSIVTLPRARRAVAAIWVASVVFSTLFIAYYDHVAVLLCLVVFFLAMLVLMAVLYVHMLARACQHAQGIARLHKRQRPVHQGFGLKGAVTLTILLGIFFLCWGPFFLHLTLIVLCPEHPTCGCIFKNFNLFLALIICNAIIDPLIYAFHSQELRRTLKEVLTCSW

First: CNC(=O)[C@H](Cc1ccc2ccccc2c1)N1CCN(C(=O)[C@@H](Cc2ccc(F)cc2)NC(C)=O)[C@@H](CCCN=C(N)N)C1=O
Second: CNC(=O)[C@H](Cc1ccc2ccccc2c1)N1CCN(C(=O)[C@H](N)Cc2ccc(F)cc2)[C@@H](CCCN=C(N)N)C1=O
The Ki of the first is 20-fold lower: 0.018 µM for the first, 0.366 µM for the second.

Going from `CNC(=O)[C@H](Cc1ccc2ccccc2c1)NC(=O)[C@H](CCCN=C(N)N)NC(=O)[C@H](N)Cc1ccc(F)cc1` to `CNC(=O)[C@H](Cc1ccc2ccccc2c1)N1CCN(C(=O)[C@@H](Cc2ccc(F)cc2)NC(=O)[C@H](CCC(N)=O)NC(C)=O)[C@@H](CCCN=C(N)N)C1=O`, the Ki falls from 4.06 µM to 0.002 µM (2000-fold). The second binds more tightly here.

Going from `CNC(=O)[C@H](Cc1ccc2ccccc2c1)N1CCN(C(=O)[C@H](N)Cc2ccc(F)cc2)[C@@H](CCNC(N)=O)C1=O` to `CNC(=O)[C@H](Cc1ccc2ccccc2c1)N1CCN(C(=O)[C@@H](Cc2ccc(F)cc2)NC(=O)[C@H](Cc2ccc(O)cc2)NC(C)=O)[C@@H](CCCN=C(N)N)C1=O`, the Ki falls from 21.7 µM to 0.014 µM (1600-fold).

Biological target: T2, Melanocyte-stimulating hormone receptor
Test: Agonist activity at human MC1R
Format: functional

Compared with `CNC(=O)[C@H](Cc1ccc2ccccc2c1)N1CCN(C(=O)[C@@H](Cc2ccc(F)cc2)NC(C)=O)[C@@H](CCCN=C(N)N)C1=O`, `CNC(=O)[C@H](Cc1ccc2ccccc2c1)N1CCN(C(=O)[C@H](N)Cc2ccc(F)cc2)[C@@H](CCCN=C(N)N)C1=O` is 140-fold higher in EC50: 0.0023 µM for the first, 0.317 µM for the second.

First: CNC(=O)[C@H](Cc1ccc2ccccc2c1)NC(=O)[C@H](CCCN=C(N)N)NC(=O)[C@H](N)Cc1ccc(F)cc1
Second: CNC(=O)[C@H](Cc1ccc2ccccc2c1)N1CCN(C(=O)[C@@H](Cc2ccc(F)cc2)NC(=O)[C@H](CCC(N)=O)NC(C)=O)[C@@H](CCCN=C(N)N)C1=O
The EC50 of the first is 59000-fold higher: 21.7 µM for the first, 0.00037 µM for the second. The second is the more potent here.

Work on `CNC(=O)[C@H](Cc1ccc2ccccc2c1)N1CCN(C(=O)[C@@H](Cc2ccc(F)cc2)NC(=O)[C@H](Cc2ccc(O)cc2)NC(C)=O)[C@@H](CCCN=C(N)N)C1=O` yielded an EC50 of 0.03 µM.

Biological target: T3, Melanocortin receptor 3 (Homo sapiens, UniProt P41968)
Test: Agonist activity at human MC3R
Format: functional

T3 sequence (P41968 whole entry): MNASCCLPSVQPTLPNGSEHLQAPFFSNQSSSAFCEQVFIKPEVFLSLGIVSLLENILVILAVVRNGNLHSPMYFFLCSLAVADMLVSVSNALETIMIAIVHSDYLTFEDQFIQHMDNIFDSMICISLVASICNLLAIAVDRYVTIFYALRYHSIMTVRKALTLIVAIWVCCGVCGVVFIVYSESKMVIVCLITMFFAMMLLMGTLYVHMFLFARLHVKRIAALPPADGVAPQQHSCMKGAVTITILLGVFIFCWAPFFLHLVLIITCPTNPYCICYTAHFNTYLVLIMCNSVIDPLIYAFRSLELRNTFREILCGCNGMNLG

Compared with `CNC(=O)[C@H](Cc1ccc2ccccc2c1)N1CCN(C(=O)[C@@H](Cc2ccc(F)cc2)NC(C)=O)[C@@H](CCCN=C(N)N)C1=O`, `CNC(=O)[C@H](Cc1ccc2ccccc2c1)N1CCN(C(=O)[C@H](N)Cc2ccc(F)cc2)[C@@H](CCCN=C(N)N)C1=O` is 3.7-fold higher in EC50: 0.01 µM for the first, 0.037 µM for the second. The first is the more potent here.

Compared with `CNC(=O)[C@H](Cc1ccc2ccccc2c1)NC(=O)[C@H](CCCN=C(N)N)NC(=O)[C@H](N)Cc1ccc(F)cc1`, `CNC(=O)[C@H](Cc1ccc2ccccc2c1)N1CCN(C(=O)[C@@H](Cc2ccc(F)cc2)NC(=O)[C@H](CCC(N)=O)NC(C)=O)[C@@H](CCCN=C(N)N)C1=O` is 40000-fold lower in EC50: 20 µM for the first, 0.0005 µM for the second. The second is the more potent here.

With `CNC(=O)[C@H](Cc1ccc2ccccc2c1)N1CCN(C(=O)[C@@H](Cc2ccc(F)cc2)NC(=O)[C@H](Cc2ccc(O)cc2)NC(C)=O)[C@@H](CCCN=C(N)N)C1=O` the EC50 was 0.002 µM.

Biological target: T3, Melanocortin receptor 3
Test: Binding affinity to human MC3R

First: CNC(=O)[C@H](Cc1ccc2ccccc2c1)N1CCN(C(=O)[C@@H](Cc2ccc(F)cc2)NC(C)=O)[C@@H](CCCN=C(N)N)C1=O
Second: CNC(=O)[C@H](Cc1ccc2ccccc2c1)N1CCN(C(=O)[C@H](N)Cc2ccc(F)cc2)[C@@H](CCCN=C(N)N)C1=O
The Ki of the first is 11-fold lower: 0.007 µM for the first, 0.075 µM for the second.

Compared with `CNC(=O)[C@H](Cc1ccc2ccccc2c1)NC(=O)[C@H](CCCN=C(N)N)NC(=O)[C@H](N)Cc1ccc(F)cc1`, `CNC(=O)[C@H](Cc1ccc2ccccc2c1)N1CCN(C(=O)[C@@H](Cc2ccc(F)cc2)NC(=O)[C@H](CCC(N)=O)NC(C)=O)[C@@H](CCCN=C(N)N)C1=O` is 350-fold lower in Ki: 1.14 µM for the first, 0.0033 µM for the second. The second binds more tightly here.

First: CNC(=O)[C@H](Cc1ccc2ccccc2c1)N1CCN(C(=O)[C@H](N)Cc2ccc(F)cc2)[C@@H](CCNC(N)=O)C1=O
Second: CNC(=O)[C@H](Cc1ccc2ccccc2c1)N1CCN(C(=O)[C@@H](Cc2ccc(F)cc2)NC(=O)[C@H](Cc2ccc(O)cc2)NC(C)=O)[C@@H](CCCN=C(N)N)C1=O
The Ki of the first is 5600-fold higher: 6.11 µM for the first, 0.0011 µM for the second.
